Marks after values point to notes of the source that are not given here.
Tests used:
[1] = tested on: induced blood vasculature of the adult mouse ear; assay: adult mouse ear model, blood vessel growth induced by sodium hydroxide burn; type: in vivo; settings: 0.025 grams in 0.25 ml PBS intraperitoneally once a day, 3 days before and 3 days after NaOH burn, FIG. 7
From the text: This example illustrates the anti-angiogenic properties of Oleuropein in the adult mouse ear model. The endpoint of the adult mouse ear model assay was a direct visualization of the number of branch points and ends of blood vessels. Such visualization would illustrate the complexity of the blood vasculature in the adult mouse ear. The decrease in the complexity of the induced blood vasculature of the adult mouse ear as a result of the application of Oleuropein would indicate its anti-angiogenic properties.
In the previous model (the CAM in the developing chick embryo), although an excellent in vivo system for studying angiogenesis, because there is ongoing new blood vessel growth in the growing embryo, we tested another model in assessing whether Oleuropein can inhibit induced blood vessel growth in an adult mammal. The model we chose to use was the adult mouse ear. The mouse ear is vascularized and is thin enough to be directly visualized by a light microscope. If a stimulus is applied to the adult mouse ear existing blood vessels are capable of sprouting new ones (angiogenesis). Using this model anti-angiogenic compounds can be tested for their effects. We applied a sodium hydroxide burn, which stimulated the existing blood vessels in the adult mouse ear to sprout new blood vessels. […]

[2] = tested on: blood vessels in the chick chorioallantoic membrane (CAM); assay: chick chorioallantoic membrane (CAM) assay, injection into the yolk sac; type: in vivo, chick embryo; settings: for Number Nodes + Ends (mean ± S.E.): control 271 ± 25, P < 0.0001 vs control
From the text: Compounds suitable for use in the methods of the present invention can readily be identified using in vitro and in vivo screening assays. Such assays may screen for the ability of a particular compound to inhibit angiogenesis or the vascularization of endothelial cells in vitro and in vivo. For instance, the chick embryo chorioallantoic membrane (CAM) assay, which is described in more detail below, can be used to screen a given compound for its ability to inhibit vascularization. In the chorioallantoic membrane assay as performed in this invention, fertilized chick embryos are injected with a compound on day 3 or 4. The embryos are then allowed to develop for […] post injection upon which the shell is cracked and the chorioallantoic membrane is photographed. Based on the number of blood vessel nodes and ends present in the CAM the complexity of vascularization can be assessed. This assay can be used to assess the anti-angeogenic properties of the compounds in this invention. It will be readily apparent to those skilled in the art that the compounds in this invention can be administered alone, in the form of a pharmaceutically acceptable salt and/or in the form of a pharmaceutical composition. This example illustrates the anti-angiogenic properties of Oleuropein in the chick chorioallantoic membrane assay (CAM). The endpoint of the CAM assay was a quantitative determination of the number of branch points and ends of blood vessels in the chorioallantoic membrane. Such a quantitation would illustrate the complexity of the blood vasculature in the developing chorioallantoic membrane. The decrease in the complexity of the blood vasculature of the chorioallantoic membrane as a result of the application of Oleuropein indicates its anti-angiogenic properties. The CAM in the developing chick embryo is an excellent in vivo system for studying angiogenesis, because there is ongoing new blood vessel growth. The CAM assay involves the monotering of the blood vasculature of the developing chorioallantoic membrane of live chick embryos. Various CAM assay approaches have been developed. These include the culturing of live chick embryos in Petri dishes under special sterile conditions. Another approach has been to cut a window in the shell of fertilized eggs and directly apply the compound to be studied in the window using a filter paper. We used a modified approach to the CAM assay, which includes a less invasive method for introducing the compound Oleuropein. Fertilized chicken eggs where candled on the third day of development. The blood vasculature and the yolk were identified. A small 1 mm hole was made in the shell. A small gauge needle carrying 0.4 ml of Oleuropein diluted in saline/water was injected directly into the yolk sac. The hole was taped and the eggs were returned to the incubator for further development. After 3 days the eggs were removed and cracked in a white dish and the chorioallantoic membrane was photographed. Control eggs were injected with saline/water. Fresh fertile eggs were incubated for three days in a standard egg incubator. Temperature and humidity were kept constant at 100° F. and 65% respectively. On Day 3, eggs were […] using a police flash light. Embryo and yolk were identified. The surface of the shell was cleaned with an alcohol swab. The egg shell was pierced with a lancet making a 1 millimeter hole. A needle was used to withdraw 0.5 ml of yolk. A 0.5 ml injection was administered directly into the yolk sack. […] Experimental eggs were injected with a 0.1% and 1.0% concentration of Oleuropein. Control eggs were injected with an equivalent amount of water. After injection the hole was covered with a small piece of scotch tape and the eggs were returned to the incubator for further development. On day 3 post injection the eggs were removed from the incubator and […]. They were cracked gently using a butter knife over a white dish. Embryo and CAM were carefully layed out for observation and photography. […]

[3] = Oleuropein treated eggs, FIG. 5

C/C=C1/[C@H](O[C@@H]2O[C@H](CO)[C@@H](O)[C@H](O)[C@H]2O)OC=C(C(=O)OC)[C@H]1CC(=O)OCCc1ccc(O)c(O)c1 [Oleuropein]
inhibition of induced blood vessel growth in the ear (photographs) [1]: potently inhibited existing blood vessels from sprouting | effect on CAM vasculature (photographs) ([2]; 0.93 μmol/egg, FIG. 2 vs control FIG. 3): potently inhibited CAM vasculature | % Inhibition of blood vessel growth compared to control ([2]; 0.93 μmole/egg): 73% | Number Nodes + Ends (mean ± S.E.) ([2]; 0.93 μmole/egg into yolk sac of three-day-old chick embryos): 72 ± 11^b | effect on CAM vasculature (photographs) ([2]; 9.3 μmol/egg, FIG. 1 vs control FIG. 3): number of blood vessels is greatly diminished and branching is less complex than in controls | % Inhibition of blood vessel growth compared to control ([2]; 9.3 μmole/egg): 84% | Number Nodes + Ends (mean ± S.E.) ([2]; 9.3 μmole/egg into yolk sac of three-day-old chick embryos): 44 ± 5.3^a | CAM diameter, smaller than control CAM [2, 3]: about 50% | embryo size, smaller than untreated control embryos [2, 3]: about 60% | embryo viability ([2]; higher dose of Oleuropein): did not effect embryo viability

Reference: patent US6632798B2, “Methods for inhibiting angiogenesis” (Antigen Biologicals Corporation, priority 2001, dated 2003)
